Results on seven molecules are retold here after patent US5484773A, “Treatment of antibiotic associated diarrhea” (priority 1994, dated 1996).

One assay concerns CDAD or PMC. The note with it: cited from earlier work; for patients in whom diarrhea returns after discontinuing antibiotic treatment: after oral Metronidazole or Vancomycin therapy, ref. [15]; for therapy effective, share of patients who suffer from CDAD or PMC: oral Metronidazole or Vancomycin with removal of offending drug and fluid replacement.
The target in assay [1] is T1, C. difficile toxin A (Clostridioides difficile, UniProt P16154).
T1 construct: Toxin A was isolated from a toxin producing strain of C. difficile; made in house; host or cells: Clostridium difficile ATCC 43255 (VPI strain 10463), native toxin from culture supernatant, not recombinant
T1 sequence (P16154 whole entry, looked up): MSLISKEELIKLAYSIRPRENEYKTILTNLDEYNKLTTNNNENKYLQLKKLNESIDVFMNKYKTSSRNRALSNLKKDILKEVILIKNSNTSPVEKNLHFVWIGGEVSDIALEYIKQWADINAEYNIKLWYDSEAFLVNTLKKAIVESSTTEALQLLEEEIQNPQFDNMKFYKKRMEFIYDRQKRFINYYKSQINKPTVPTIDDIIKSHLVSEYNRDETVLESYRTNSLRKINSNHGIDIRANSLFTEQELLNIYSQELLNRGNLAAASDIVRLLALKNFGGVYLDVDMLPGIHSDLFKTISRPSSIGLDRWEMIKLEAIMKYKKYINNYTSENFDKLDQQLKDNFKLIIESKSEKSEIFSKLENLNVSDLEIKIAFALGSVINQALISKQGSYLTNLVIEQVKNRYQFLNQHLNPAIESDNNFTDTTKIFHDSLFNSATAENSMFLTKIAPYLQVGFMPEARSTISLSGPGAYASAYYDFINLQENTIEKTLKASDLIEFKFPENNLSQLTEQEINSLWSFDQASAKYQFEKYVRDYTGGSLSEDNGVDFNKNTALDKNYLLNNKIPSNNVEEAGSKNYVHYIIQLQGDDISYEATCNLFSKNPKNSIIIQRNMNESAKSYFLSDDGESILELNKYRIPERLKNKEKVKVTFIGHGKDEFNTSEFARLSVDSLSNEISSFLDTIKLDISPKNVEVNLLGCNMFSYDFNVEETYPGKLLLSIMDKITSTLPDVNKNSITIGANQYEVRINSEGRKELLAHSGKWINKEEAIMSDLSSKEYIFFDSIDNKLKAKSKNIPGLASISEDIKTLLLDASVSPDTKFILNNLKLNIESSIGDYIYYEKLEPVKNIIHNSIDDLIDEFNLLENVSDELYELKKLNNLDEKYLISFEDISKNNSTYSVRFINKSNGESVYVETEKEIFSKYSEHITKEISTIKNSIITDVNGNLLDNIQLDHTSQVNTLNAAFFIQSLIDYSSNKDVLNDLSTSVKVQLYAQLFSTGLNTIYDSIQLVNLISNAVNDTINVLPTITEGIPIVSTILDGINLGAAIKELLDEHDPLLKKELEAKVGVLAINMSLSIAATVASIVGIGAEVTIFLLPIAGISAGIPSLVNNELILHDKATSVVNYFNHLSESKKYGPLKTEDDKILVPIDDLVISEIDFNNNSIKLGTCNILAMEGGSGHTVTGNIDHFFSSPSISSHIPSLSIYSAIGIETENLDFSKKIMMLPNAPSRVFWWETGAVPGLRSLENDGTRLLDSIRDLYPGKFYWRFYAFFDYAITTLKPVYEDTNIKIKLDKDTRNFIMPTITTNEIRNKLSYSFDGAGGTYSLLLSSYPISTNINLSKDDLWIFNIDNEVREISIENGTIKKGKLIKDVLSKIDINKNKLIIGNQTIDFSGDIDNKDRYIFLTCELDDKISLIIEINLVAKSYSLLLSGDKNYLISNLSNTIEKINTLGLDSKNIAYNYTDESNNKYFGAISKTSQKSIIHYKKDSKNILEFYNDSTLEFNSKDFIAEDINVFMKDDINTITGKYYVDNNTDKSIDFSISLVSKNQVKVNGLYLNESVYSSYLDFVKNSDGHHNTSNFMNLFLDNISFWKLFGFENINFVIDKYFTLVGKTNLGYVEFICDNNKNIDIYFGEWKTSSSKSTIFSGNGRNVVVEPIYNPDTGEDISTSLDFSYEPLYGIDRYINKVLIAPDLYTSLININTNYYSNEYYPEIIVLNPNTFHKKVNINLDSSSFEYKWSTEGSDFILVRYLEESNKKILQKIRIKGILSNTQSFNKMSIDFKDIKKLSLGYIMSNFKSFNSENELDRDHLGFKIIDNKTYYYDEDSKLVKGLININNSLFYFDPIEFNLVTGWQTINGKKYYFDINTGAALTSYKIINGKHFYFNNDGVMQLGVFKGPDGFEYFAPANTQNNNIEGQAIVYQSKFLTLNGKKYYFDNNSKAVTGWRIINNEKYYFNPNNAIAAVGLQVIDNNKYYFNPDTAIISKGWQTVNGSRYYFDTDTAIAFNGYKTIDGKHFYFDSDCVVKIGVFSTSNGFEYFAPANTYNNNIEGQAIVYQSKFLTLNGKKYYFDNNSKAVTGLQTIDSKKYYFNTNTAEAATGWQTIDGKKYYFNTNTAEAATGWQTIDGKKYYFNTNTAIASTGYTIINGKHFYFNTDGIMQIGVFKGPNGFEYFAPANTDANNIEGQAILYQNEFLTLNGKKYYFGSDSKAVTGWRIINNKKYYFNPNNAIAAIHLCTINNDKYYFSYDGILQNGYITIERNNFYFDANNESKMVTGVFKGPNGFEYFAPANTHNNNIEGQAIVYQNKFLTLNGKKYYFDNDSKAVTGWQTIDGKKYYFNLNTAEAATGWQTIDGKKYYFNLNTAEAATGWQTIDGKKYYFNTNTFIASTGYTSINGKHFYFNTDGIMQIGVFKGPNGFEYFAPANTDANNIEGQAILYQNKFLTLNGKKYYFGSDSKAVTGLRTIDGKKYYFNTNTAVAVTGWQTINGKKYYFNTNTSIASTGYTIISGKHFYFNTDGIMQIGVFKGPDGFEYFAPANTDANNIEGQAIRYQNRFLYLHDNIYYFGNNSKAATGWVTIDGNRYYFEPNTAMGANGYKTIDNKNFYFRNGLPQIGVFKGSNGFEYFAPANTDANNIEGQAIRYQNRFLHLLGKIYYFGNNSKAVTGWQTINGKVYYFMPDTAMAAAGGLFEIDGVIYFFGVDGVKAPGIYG
As to the kind of experiment: Screening: neutralization of purified toxin A hemagglutination activity by SYNSORBs (Example 1, FIG. 1). The format is biochemical, Clostridium difficile. The method, then:
The amount of toxin A adsorption to SYNSORB was determined by assaying supernatants for reduction of endpoint titers in hemagglutination assays relative to controls without any added SYNSORB. […] SYNSORBs 2, 5, 104, 105, and 134 neutralized about 50% of toxin A activity.
Toxin A was isolated from a toxin producing strain of C. difficile (ATCC 43255, VPI strain 10463) using slight modifications of the method of Sullivan et al..
C. difficile was grown in 2.3 liter of brain heart infusion broth (BHIB) in anaerobic jars for 72 hours at 37° C. The crude culture was centrifuged at 5,000× g for 20 minutes to sediment the bacteria. The resulting culture supernatant was carefully removed and solid ammonium sulfate (897 g) was added to make 60% saturation. […]
Fresh rabbit erythrocytes were washed once in phosphate buffered saline (PBS) and resuspended at a concentration of 4% (v/v) in cold PBS. […] After incubating the plate for 4 hours at 4° C., the hemagglutination titer was visually assessed. […]
After incubation, the SYNSORB was allowed to settle to the bottom of the tubes and the supernatants were carefully removed. Serial 2-fold dilutions of the supernatants were prepared and the hemagglutination endpoint determined as described above.
The extent of reduction in the endpoint in the presence of SYNSORB was determined by comparing the endpoint with that of controls in which SYNSORB was not added. […]

In assay [2] the target is T1, C. difficile toxin A. As to the kind of experiment: Determination of optimal binding conditions (amount and incubation time) for toxin A neutralization, hemagglutination (Example 2, FIGS. 2 and 3). The format is biochemical, Clostridium difficile. The note with it: about 20 mg SYNSORB per 1 ml toxin A solution (20 mg/ml); 2 hours, 37° C.; FIG. 2. The method, then: (§1) Fresh rabbit erythrocytes were washed once in phosphate buffered saline (PBS) and resuspended at a concentration of 4% (v/v) in cold PBS. Serial 2-fold dilutions (50 μl) of toxin A-containing solutions were made in cold PBS in U-shaped microtiter wells. An equal volume (50 μl) of rabbit erythrocytes was then added to each well and the microtiter plate was mixed gently. After incubating the plate for 4 hours at 4° C., the hemagglutination titer was visually assessed.
The amount of SYNSORBS 52 and 90 required for maximal toxin A neutralization was determined by adding 1 ml of a purified toxin A solution to pre-weighed amounts of each SYNSORB in 1.5 ml microcentrifuge tubes. SYNSORB 52 samples were tested using 12.8, 21.6 and 43.3 mg amounts of SYNSORB 52; SYNSORB 90 samples were tested using 12.9, 19.2 and 42.3 mg amounts of SYNSORB 90. Samples were incubated for 2 hours at 37° C. on an end-over-end rotator. […]
The amount of neutralization in each sample was determined by comparing the endpoint titers of hemagglutination assays from samples with and without SYNSORB.
The length of incubation time required for optimal neutralization was determined by incubating microcentrifuge tubes containing 1 ml of purified toxin A solution and 20 mg of either SYNSORB 52 or SYNSORB 90. […]
The degree of neutralization at each incubation period was determined as described above.

Assay [3] has as its target T1, C. difficile toxin A. Kind of assay: Determination of binding affinity of SYNSORBs to toxin A, hemagglutination titer reduction (Example 4, FIG. 4). The settings on record: rabbit erythrocytes. Also on record: species or system Clostridium difficile. As to the method:
For the purposes of this invention, oligosaccharide sequences attached to solid supports which bind toxin A means those compositions which reduce endpoint titers from hemagglutination assays by at least 50%.
as §1
To assess the binding affinity of various SYNSORBs to toxin A, each SYNSORB was combined with toxin A as described in Example 1. Endpoint titers from hemagglutination assays using rabbit erythocytes were determined as described previously. […] Those SYNSORBs which reduced titers by greater than 50% were deemed to bind toxin A.

`Cc1ncc([N+](=O)[O-])n1CCO` [Metronidazole]: in the assay with CDAD or PMC, the “patients in whom diarrhea returns after discontinuing antibiotic treatment” value is recorded as “about 20%” and the “therapy effective, share of patients who suffer from CDAD or PMC” value is listed as “about 80%”.

For the molecule `CN[C@H](CC(C)C)C(=O)N[C@H]1C(=O)N[C@@H](CC(N)=O)C(=O)N[C@H]2C(=O)N[C@H]3C(=O)N[C@H](C(=O)N[C@H](C(=O)O)c4cc(O)cc(O)c4-c4cc3ccc4O)[C@H](O)c3ccc(c(Cl)c3)Oc3cc2cc(c3O[C@@H]2O[C@H](CO)[C@@H](O)[C@H](O)[C@H]2O[C@H]2C[C@](C)(N)[C@H](O)[C@H](C)O2)Oc2ccc(cc2Cl)[C@H]1O` [Vancomycin], in the assay on CDAD or PMC, the “patients in whom diarrhea returns after discontinuing antibiotic treatment” value was “about 20%” and the “therapy effective, share of patients who suffer from CDAD or PMC” value was “about 80%”.

With αGal(1-3)βGal(1-3)βGlcNAc [SYNSORB 134], the “removal/neutralization of toxin A activity (reduction of endpoint titers in hemagglutination assays)” value at C. difficile toxin A [1] (purified toxin A 0.5 ml, 10.1 to 17.5 mg SYNSORB, room temperature, 2 hours, rabbit erythrocytes) is on record as “about 50%”.

Take αGal(1-3)βGal(1-4)βGlc [SYNSORB 90]: the “neutralization of toxin A activity (in words)” value at C. difficile toxin A [1] (purified toxin A, hemagglutination vs controls without SYNSORB) was “as effective at neutralizing toxin A activity”. Also, the “neutralization of toxin A activity” value at C. difficile toxin A [2] is “more than 75%”.

For the molecule αGal(1-4)βGal(1-4)βGlc [SYNSORB 68], at C. difficile toxin A [3], the “binding to toxin A (criterion: titer reduced by greater than 50%)” value is recorded as “bind toxin A”.

As for αNeuAc(2-6)βGal(1-4)βGlc [SYNSORB 89], the “binding to toxin A (criterion: titer reduced by greater than 50%)” value at C. difficile toxin A [3] is reported as “appear not to bind toxin A”.

βGal(1-4)βGlcNAc [SYNSORB 34]: the “binding to toxin A (criterion: titer reduced by greater than 50%)” value on C. difficile toxin A [3] was “appear not to bind toxin A”.
